Assays:
[1] = Metabolic stability in human liver microsomes; type: in vitro ADME; conditions: pH 7.4, pooled human liver microsomes 0.5 mg/mL, test compound 3 μM, NADPH, 0, 5, 15, 30, 45 min, LC-MS/MS; for microsomal CLint at 3 μM: read-out: CLint (μL/min/mg protein)
[2] = Metabolic stability in human liver microsomes; type: in vitro ADME; conditions: significant if half-life increase >=15% or CLint ratio (deuterated compound/idazoxan) >1.15 or <0.85
Method: Test compound (1 μM) was incubated with pooled liver microsomes.
Pooled liver microsomes were purchased from a reputable commercial supplier. Microsomes were stored at −80° C. prior to use.
A minus cofactor control incubation was included for each compound tested where 0.1 M phosphate buffer pH 7.4 was added instead of NADPH (minus NADPH). Two control compounds were included with each species. All incubations were performed singularly for each test compound.
The reactions were stopped by transferring incubate into acetonitrile at the appropriate time points, in a 1:3 ratio. The termination plates were centrifuged at 3,000 rpm for 20 min at 4° C. to precipitate the protein.
Following protein precipitation, the sample supernatants were combined in cassettes of up to 4 compounds, internal standard was added and samples analysed using generic LCMS/MS conditions.
From a plot of In peak area ratio (compound peak area/internal standard peak area) against time, the gradient of the line was determined. Subsequently, half-life and intrinsic clearance were calculated using the equations below:
where V=Incubation volume (μL)/Microsomal protein (mg)
Relevant control compounds were assessed, ensuring intrinsic clearance values fell within the specified limits (if available). Any failures were rejected and the assay repeated. The intrinsic clearance (CLint) of the test compound and standard error (SE CLint), t½ and n (number of time points used to calculate CLint) were returned.

[3] = background statement; species and route not given; cited from earlier work

Compound	half-life at 3 μM [1] [h]	microsomal CLint at 3 μM [1] [µL/min/mg]	differences in in vitro clearance and half-life compared to idazoxan [2]	idazoxan reaching systemic circulation [3]
[2H]c1ccc2c(c1)OCC(C1=NCCN1)O2 (centres unmarked) [Compound 1, 2-(2,3-dihydrobenzo[b][1,4]dioxin-2-yl-6-d)-4,5-dihydro-1H-imidazole]	8.05	2.87	significant differences	
[2H]c1ccc2c(c1)OC(C1=NCCN1)CO2 (centres unmarked) [Compound 2, 2-(2,3-dihydrobenzo[b][1,4]dioxin-2-yl-7-d)-4,5-dihydro-1H-imidazole]	21.8	1.06	significant differences	
[2H]c1cc2c(cc1[2H])OC(C1=NCCN1)CO2 (centres unmarked) [Compound 3, 2-(2,3-dihydrobenzo[b][1,4]dioxin-2-yl-6,7-d2)-4,5-dihydro-1H-imidazole]	10.4	2.23	significant differences	
[2H]c1c([2H])c([2H])c2c(c1[2H])OCC(C1=NCCN1)O2 (centres unmarked) [Compound 4, 2-(2,3-dihydrobenzo[b][1,4]dioxin-2-yl-5,6,7,8-d4)-4,5-dihydro-1H-imidazole]	8.93	2.59	significant differences	
[2H]c1ccc2c(c1)OCC(C1=NC([2H])([2H])C([2H])([2H])N1)O2 (centres unmarked) [Compound 49, 2-(2,3-dihydrobenzo[b][1,4]dioxin-2-yl-6-d)-4,5-dihydro-1H-imidazole-4,4,5,5-d4]	15.5	1.49	significant differences	
[2H]c1ccc2c(c1)OC(C1=NC([2H])([2H])C([2H])([2H])N1)CO2 (centres unmarked) [Compound 50, 2-(2,3-dihydrobenzo[b][1,4]dioxin-2-yl-7-d)-4,5-dihydro-1H-imidazole-4,4,5,5-d4]	913	0.0253	significant differences	
[2H]c1cc2c(cc1[2H])OC(C1=NC([2H])([2H])C([2H])([2H])N1)CO2 (centres unmarked) [Compound 51, 2-(2,3-dihydrobenzo[b][1,4]dioxin-2-yl-6,7-d2)-4,5-dihydro-1H-imidazole-4,4,5,5-d4]	13.8	1.68	significant differences	
[2H]c1c([2H])c([2H])c2c(c1[2H])OCC(C1=NC([2H])([2H])C([2H])([2H])N1)O2 (centres unmarked) [Compound 52, 2-(2,3-dihydrobenzo[b][1,4]dioxin-2-yl-5,6,7,8-d4)-4,5-dihydro-1H-imidazole-4,4,5,5-d4]	7.75	2.98	significant differences	
[2H]C1([2H])N=C(C2COc3ccccc3O2)NC1([2H])[2H] (centres unmarked) [Compound 64, 2-(2,3-dihydrobenzo[b][1,4]dioxin-2-yl)-4,5-dihydro-1H-imidazole-4,4,5,5-d4]	7.95	2.91	significant differences	
COc1ccc2c(c1)[C@]13CCCC[C@@H]1[C@H](C2)N(C)CC3 [Dextromethorphan, reference compound]	0.48	48.1		
c1ccc2c(c1)OCC(C1=NCCN1)O2 (centres unmarked) [Idazoxan]	4.28	5.39		27-28%
